How the values were obtained:
[1] = system: TS-exposed female C57BL/6J mice; experiment: Tobacco smoke (TS) model, lungs inflammatory cells recruitment; assay type: in vivo, mouse; conditions: days 6 to 11, TS-exposed mice
Procedure: The aim of this experiment is to evaluate the efficacy and potency of a test compound administered p.o., once or twice daily on days 6 to 11, vs reference compounds, on pulmonary inflammation induced by 11 days of TS-exposure in female C57BL/6J mice, by assessing the effect of a test compound on the tobacco smoke induced recruitment of inflammatory cells to the lungs.
The test compounds are formulated in PEG200/0.5% methylcellulose (25/75, v/v) and are given at a dose volume of 10 mL/kg. Roflumilast and Dexamethasone are included as positive […] control, respectively. Each treatment group consists of 10 mice.
A first group of mice is subjected to daily TS-exposure for 5 consecutive days and sacrificed on the day 6, 24 h after the final TS-exposure.
A second group is exposed to air for 5 consecutive days (sham exposure) and sacrificed on the day 6, 24 h after the final air-exposure.
Compound and reference-treated groups are subjected to daily TS-exposure for 11 consecutive days and sacrificed on the day 12, 24 h after the final TS-exposure. Mice are dosed p.o. on days 6 to 11, twice daily, 1 h prior to and 6 h after each TS-exposure, with either vehicle, or the test compound at 3, 5, 10 or 30 mg/kg. Another group is dosed p.o. on days 6 to 11, once daily, 1 h prior to each TS-exposure, with either vehicle, or the test compound at 10 mg/kg.
An additional group is dosed p.o., once daily, on days 6 to 11, with roflumilast at 5 mg/kg, 1 h prior to each TS-exposure. Dexamethasone is dosed p.o., twice daily, on days 6 to 11, at 0.3 mg/kg, 1 h prior to and 6 h after each TS-exposure.
For each mouse, a BAL is performed using 0.4 mL of PBS. The lavage fluid is centrifuged, the supernatant removed and the resulting cell pellet re-suspended for total cell counts and cytospin slide preparation. […]
The lungs are dissected out and the left lobes are removed, snap-frozen and stored at −80° C. […] Cell data are presented as individual data points for each animal and the mean value calculated for each group. […]
Percentage inhibitions for the cell data are calculated using the formula below: […]

hENPP2 = hENPP2 (Homo sapiens (Human), UniProt Q13822); experiment: hENPP2 biochemical assay, LPC as substrate
Procedure: The principle of the assay consists in quantifying the released choline with an enzymatic method using choline oxidase and peroxidase. Choline oxydation by choline oxydase releases betaine and peroxide. The latter is quantified in presence of HRP that converts the peroxide detection agent TOOS and 4-aminoantipyrine into quinoneimine dye. The appearance of quinoneimine dye is measured spectrophotometrically at 555 nm and is proportional to the amount of choline released by ENPP2. Inhibition of ENPP2 will result in a decrease of the signal.
Compound IC50 values are determined in a hENPP2 (UniProtKB/SwissProt Sequence ref Q13822) biochemical assay using LPC as substrate.
The enzyme is diluted in 50 mM Tris-HCl pH 8.5, 500 mM NaCl, 5 mM KCl, 10 mM CaCl2, 0.1% fatty acid free BSA in a total volume of 10 μL. the reaction is started by the addition of 10 μL of 150 μM LPC (palmitoyl 16:0) diluted in the same buffer as described above and the mixture is incubated at 37° C. for 30 min. The reaction is terminated and choline quantified by the addition of a 25 μL of a mixture containing 0.6 U/mL of choline oxidase, 0.6 U/mL of peroxydase, 1.8 mM TOOS, 1.2 mM amino-antipyrine, 20 mM EGTA (stop-developer solution) diluted in the buffer described above. […] is read on the Envision after an incubation of 30 min at room temperature (Excitation 555 nm, excitation light=70%).

IC50 (hENPP2)	Compound	number of cells recovered in the BALF, in particular macrophage cells, epithelial cells, and neutrophils ([1]; 3 mg/kg twice daily p.o.)	number of cells recovered in the BALF, in particular macrophage cells, epithelial cells, and neutrophils ([1]; 10 mg/kg twice daily p.o.)
–	CCc1nc2c(C)cc(N3CCN(CC(=O)N4CC(O)C4)CC3)cn2c1N(C)c1nc(-c2ccc(F)cc2)c(C#N)s1 [Compound 2, 2-((2-ethyl-6-(4-(2-(3-hydroxyazetidin-1-yl)-2-oxoethyl)piperazin-1-yl)-8-methylimidazo[1,2-a]pyridin-3-yl)(methyl)amino)-4-(4-fluorophenyl)thiazole-5-carbonitrile]	significantly inhibited	significantly inhibited
–	CCc1nc2c(F)cc(N3CCN(CC(=O)N4CC(O)C4)CC3)cn2c1N(C)c1nc(-c2ccc(F)cc2)c(C#N)s1 [Compound 12, 2-((2-ethyl-8-fluoro-6-(4-(2-(3-hydroxyazetidin-1-yl)-2-oxoethyl)piperazin-1-yl)imidazo[1,2-a]pyridin-3-yl)(methyl)amino)-4-(4-fluorophenyl)thiazole-5-carbonitrile]	–	significantly inhibited
0.5 to 1 µM	CCc1nc2ccc(C3CCN(C4=NCC(CO)O4)CC3)cn2c1N(C)c1nc(-c2ccc(F)cc2)cs1 (stereo not shown) [Compound 222]	–	–
